Read-outs that look alike come from different tables or passages of the source. Starred links: 1 amine or outer side, 2 acyl side, 3 side chain; linkers in the order of their positions; H or OH if unused. Non-standard residues stand in square brackets, D forms with d. Residues, ends and D or L forms follow the SMILES beside them. *: point of attachment. Ala(piperidin-4-yl) = O=C([C@H](CC1CCN([*:3])CC1)N[*:1])[*:2]; Malonyl(2,2-Me2,histaminyl) = CC(C)(C(=O)NCCc1cnc[nH]1)C(=O)*; dBip = N[C@H](Cc1ccc(-c2ccccc2)cc1)C(=O)O; Oic = O=C(O)[C@@H]1C[C@@H]2CCCC[C@@H]2N1; Phe(4-Br) = N[C@@H](Cc1ccc(Br)cc1)C(=O)O; dPhe(4-Br) = N[C@H](Cc1ccc(Br)cc1)C(=O)O; X4 = CC(C)(C(=O)NCCCc1cnc[nH]1)C(=O)*; hArg = N=C(N)NCCCC[C@H](N)C(=O)O; dCha = N[C@H](CC1CCCCC1)C(=O)O; Nle = CCCC[C@H](N)C(=O)O; Aib = CC(C)(N)C(=O)O; Bn = c1ccc(C*)cc1
What was measured:
human Apelin receptor [1] = target: T1, human Apelin receptor (Homo sapiens, UniProt P35414); assay: β-arrestin accumulation assay, functional agonism of human Apelin receptors; type: cell-based
T1 construct: host or cells: CHO-K1 cells
Procedure, shortened: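 After 16 h at 37° C., cells were exposed to increasing agonist concentrations in serum-free medium for 90 min at 37° C. Detection reagent added for 60 min in the dark; receptor activation read by fluorescence and EC50 derived from concentration-response curves.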
T1 sequence (P32121 whole entry partner, one chain of several): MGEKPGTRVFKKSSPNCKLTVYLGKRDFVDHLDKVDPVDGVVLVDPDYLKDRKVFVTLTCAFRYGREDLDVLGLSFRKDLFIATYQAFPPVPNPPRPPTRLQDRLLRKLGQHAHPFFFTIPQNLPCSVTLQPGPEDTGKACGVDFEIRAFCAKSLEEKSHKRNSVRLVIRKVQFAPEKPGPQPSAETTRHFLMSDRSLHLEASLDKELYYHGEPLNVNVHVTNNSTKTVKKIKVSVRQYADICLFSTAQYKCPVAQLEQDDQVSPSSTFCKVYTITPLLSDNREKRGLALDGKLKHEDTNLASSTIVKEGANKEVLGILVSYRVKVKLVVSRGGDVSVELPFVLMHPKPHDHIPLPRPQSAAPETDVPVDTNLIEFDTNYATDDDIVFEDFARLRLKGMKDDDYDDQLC

human Apelin receptor [2] = target: T2, human Apelin receptor (Homo sapiens, UniProt P35414); assay: cAMP accumulation assay (HTRF), functional agonism of human Apelin receptors; type: cell-based; conditions: for Emax: CHO
T2 sequence (P35414 1-380): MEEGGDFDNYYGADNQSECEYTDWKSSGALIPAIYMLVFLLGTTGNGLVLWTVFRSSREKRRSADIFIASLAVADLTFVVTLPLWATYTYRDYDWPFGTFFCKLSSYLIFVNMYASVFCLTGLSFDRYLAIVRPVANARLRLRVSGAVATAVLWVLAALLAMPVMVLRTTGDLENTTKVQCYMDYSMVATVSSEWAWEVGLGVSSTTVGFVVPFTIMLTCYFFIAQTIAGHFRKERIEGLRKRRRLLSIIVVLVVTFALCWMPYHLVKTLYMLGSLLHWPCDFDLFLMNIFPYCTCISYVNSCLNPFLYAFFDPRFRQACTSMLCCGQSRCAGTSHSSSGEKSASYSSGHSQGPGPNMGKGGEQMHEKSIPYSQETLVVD
Text: cAMP functional assay. cAMP production was quantified using the Homogeneous Time-Resolved Fluorescence (HTRF) cAMP dynamic-2 assay (Cisbio, France).

[3] = Human Apelin agonist cAMP assay, CHO cells stably expressing the human Apelin receptor, 3 uM forskolin
[4] = pEC50, Human Apelin agonist cAMP assay, CHO cells stably expressing the human Apelin receptor, 3 uM forskolin

| Structure (SMILES) | EC50 (human Apelin receptor [1]) [nM] | Emax (human Apelin receptor [2]; [3]) [%] | EC50 (human Apelin receptor [2]; [4]) [nM] | Emax (human Apelin receptor [2]; read-out: Emax) [%] | EC50 (human Apelin receptor [2]; read-out: pEC50 (converted)) [nM] |
| --- | --- | --- | --- | --- | --- |
| CCCC[C@H](NC(=O)[C@@H]1C[C@@H]2CCCC[C@@H]2N1C(=O)CNC(=O)[C@H](CC1CCNCC1)NC(=O)[C@H](Cc1ccc(Br)cc1)NC(=O)C(C)(C)NC(=O)[C@H](CC(C)C)NC(=O)[C@@H](CCCNC(=N)N)NC(=O)[C@@H]1CCCN1C(=O)[C@H](CCCCNC(=N)N)NC(=O)[C@H](CCC(N)=O)NC(=O)[C@@H](CCCNC(=N)N)NC(=O)C(C)(C)C(=O)NCCc1cnc[nH]1)C(=O)N1CCC[C@H]1C(=O)N[C@H](Cc1ccc(-c2ccccc2)cc1)C(=O)O [Example 33] ({Malonyl(2,2-Me2,histaminyl)}-[dR]Q[hArg]P[dR]L[Aib][Phe(4-Br)][Ala(piperidin-4-yl)]G[Oic][Nle]P[dBip]-OH) | > 10000 | 63 | 25.1 | – | – |
| CCCC[C@H](NC(=O)[C@@H]1C[C@@H]2CCCC[C@@H]2N1C(=O)CNC(=O)[C@H](CC1CCNCC1)NC(=O)[C@H](Cc1ccc(Br)cc1)NC(=O)C(C)(C)NC(=O)[C@H](CC(C)C)NC(=O)[C@H](CCCNC(=N)N)NC(=O)[C@@H]1CCCN1C(=O)[C@@H](CCCNC(=N)N)NC(=O)[C@H](CCC(N)=O)NC(=O)[C@@H](CCCNC(=N)N)NC(=O)C(C)(C)C(=O)NCCc1cnc[nH]1)C(=O)N1CCC[C@H]1C(=O)N[C@H](Cc1ccc(-c2ccccc2)cc1)C(=O)O [Example 34] ({Malonyl(2,2-Me2,histaminyl)}-[dR]Q[dR]PRL[Aib][Phe(4-Br)][Ala(piperidin-4-yl)]G[Oic][Nle]P[dBip]-OH) | > 10000 | 60.6 | 25.1 | – | – |
| CC(C)C[C@H](NC(=O)[C@H](CCCNC(=N)N)NC(=O)[C@@H]1CCCN1C(=O)[C@@H](CCCNC(=N)N)NC(=O)[C@H](CCC(N)=O)NC(=O)[C@@H](CCCNC(=N)N)NC(=O)C(C)(C)C(=O)NCCc1cnc[nH]1)C(=O)NC(C)(C)C(=O)N[C@@H](Cc1ccc(Br)cc1)C(=O)N[C@@H](CC1CCNCC1)C(=O)NCC(=O)N1[C@H](C(=O)N[C@@H](Cc2ccccc2)C(=O)N2CCC[C@H]2C(=O)N[C@H](Cc2ccc(-c3ccccc3)cc2)C(=O)O)C[C@@H]2CCCC[C@@H]21 [Example 35] ({Malonyl(2,2-Me2,histaminyl)}-[dR]Q[dR]PRL[Aib][Phe(4-Br)][Ala(piperidin-4-yl)]G[Oic]FP[dBip]-OH) | > 10000 | 35.3 | 63.1 | – | – |
| CC(C)C[C@H](NC(=O)[C@@H](CCCNC(=N)N)NC(=O)[C@@H]1CCCN1C(=O)[C@H](CCCCNC(=N)N)NC(=O)[C@H](CCC(N)=O)NC(=O)[C@@H](CCCNC(=N)N)NC(=O)C(C)(C)C(=O)NCCCc1cnc[nH]1)C(=O)NC(C)(C)C(=O)N[C@@H](Cc1c[nH]cn1)C(=O)N[C@@H](CC1CCNCC1)C(=O)NCC(=O)N1[C@H](C(=O)N[C@@H](Cc2ccc(Br)cc2)C(=O)N2CCC[C@H]2C(=O)N[C@H](Cc2ccc(-c3ccccc3)cc2)C(=O)O)C[C@@H]2CCCC[C@@H]21 [Example 36] (X4-[dR]Q[hArg]P[dR]L[Aib]H[Ala(piperidin-4-yl)]G[Oic][Phe(4-Br)]P[dBip]-OH) | > 100000 | 55.7 | 5.01 | – | – |
| CC(C)C[C@H](NC(=O)[C@@H](CCCNC(=N)N)NC(=O)[C@@H]1CCCN1C(=O)[C@H](CCCCNC(=N)N)NC(=O)[C@H](CCC(N)=O)NC(=O)C(C)(C)C(=O)NCCc1cnc[nH]1)C(=O)N[C@H](C)C(=O)N[C@@H](Cc1c[nH]cn1)C(=O)N[C@@H](CC1CCNCC1)C(=O)NCC(=O)N1[C@H](C(=O)N[C@@H](Cc2ccc(Br)cc2)C(=O)N2CCC[C@H]2C(=O)N[C@H](Cc2ccc(-c3ccccc3)cc2)C(=O)O)C[C@@H]2CCCC[C@@H]21 [Example 38] ({Malonyl(2,2-Me2,histaminyl)}-Q[hArg]P[dR]L[dA]H[Ala(piperidin-4-yl)]G[Oic][Phe(4-Br)]P[dBip]-OH) | > 10000 | 27.9 | 31.6 | – | – |
| CC(C)C[C@H](NC(=O)[C@@H](CCCNC(=N)N)NC(=O)[C@@H]1CCCN1C(=O)[C@H](CCCCNC(=N)N)NC(=O)[C@H](CCC(N)=O)NC(=O)C(C)(C)C(=O)NCCc1cnc[nH]1)C(=O)NC(C)(C)C(=O)N[C@@H](Cc1c[nH]cn1)C(=O)N[C@@H](CC1CCNCC1)C(=O)NCC(=O)N1[C@H](C(=O)N[C@@H](Cc2ccc(Br)cc2)C(=O)N2CCC[C@H]2C(=O)N[C@H](Cc2ccc(-c3ccccc3)cc2)C(=O)O)C[C@@H]2CCCC[C@@H]21 [Example 39] ({Malonyl(2,2-Me2,histaminyl)}-Q[hArg]P[dR]L[Aib]H[Ala(piperidin-4-yl)]G[Oic][Phe(4-Br)]P[dBip]-OH) | > 10000 | 62.1 | 31.6 | – | – |
| CC(C)C[C@H](NC(=O)[C@H](CCCNC(=N)N)NC(=O)[C@@H]1CCCN1C(=O)[C@@H](CCCNC(=N)N)NC(=O)[C@H](CCC(N)=O)NC(=O)C(C)(C)C(=O)NCCc1cnc[nH]1)C(=O)NC(C)(C)C(=O)N[C@@H](Cc1c[nH]cn1)C(=O)N[C@@H](CC1CCNCC1)C(=O)NCC(=O)N1[C@H](C(=O)N[C@@H](Cc2ccc(Br)cc2)C(=O)N2CCC[C@H]2C(=O)N[C@H](Cc2ccc(-c3ccccc3)cc2)C(=O)O)C[C@@H]2CCCC[C@@H]21 [Example 40] ({Malonyl(2,2-Me2,histaminyl)}-Q[dR]PRL[Aib]H[Ala(piperidin-4-yl)]G[Oic][Phe(4-Br)]P[dBip]-OH) | > 10000 | 84.8 | 25.1 | – | – |
| CC(C)C[C@H](NC(=O)[C@H](CCCNC(=N)N)NC(=O)[C@@H]1CCCN1C(=O)[C@@H](CCCNC(=N)N)NC(=O)[C@H](CCC(N)=O)NC(=O)C(C)(C)C(=O)NCCc1cnc[nH]1)C(=O)NC(C)(C)C(=O)N[C@@H](Cc1c[nH]cn1)C(=O)N[C@@H](CC1CCNCC1)C(=O)NCC(=O)N1[C@H](C(=O)N[C@@H](Cc2ccc(Br)cc2)C(=O)N2CCC[C@H]2C(=O)N[C@H](Cc2ccc(Br)cc2)C(=O)O)C[C@@H]2CCCC[C@@H]21 [Example 41] ({Malonyl(2,2-Me2,histaminyl)}-Q[dR]PRL[Aib]H[Ala(piperidin-4-yl)]G[Oic][Phe(4-Br)]P[dPhe(4-Br)]-OH) | > 10000 | – | – | 46.1 | 50.1 |
| CC(C)C[C@H](NC(=O)[C@H](CCCNC(=N)N)NC(=O)[C@@H]1CCCN1C(=O)[C@@H](CCCNC(=N)N)NC(=O)[C@H](CCC(N)=O)NC(=O)C(C)(C)C(=O)NCCc1cnc[nH]1)C(=O)NC(C)(C)C(=O)N[C@@H](Cc1c[nH]cn1)C(=O)N[C@@H](CC1CCNCC1)C(=O)NCC(=O)N1[C@H](C(=O)N[C@@H](Cc2ccc(Br)cc2)C(=O)N2CCC[C@H]2C(=O)N[C@H](Cc2ccc(OCc3ccccc3)cc2)C(=O)O)C[C@@H]2CCCC[C@@H]21 [Example 42] ({Malonyl(2,2-Me2,histaminyl)}-Q[dR]PRL[Aib]H[Ala(piperidin-4-yl)]G[Oic][Phe(4-Br)]P[dY](Bn)-OH) | 79.4 | 107 | 7.94 | – | – |
| CC(C)C[C@H](NC(=O)[C@H](CCCNC(=N)N)NC(=O)[C@@H]1CCCN1C(=O)[C@@H](CCCNC(=N)N)NC(=O)[C@H](CCC(N)=O)NC(=O)C(C)(C)C(=O)NCCc1cnc[nH]1)C(=O)NC(C)(C)C(=O)N[C@@H](Cc1c[nH]cn1)C(=O)N[C@@H](CC1CCNCC1)C(=O)NCC(=O)N1[C@H](C(=O)N[C@@H](Cc2ccc(Br)cc2)C(=O)N2CCC[C@H]2C(=O)N[C@H](CC2CCCCC2)C(=O)O)C[C@@H]2CCCC[C@@H]21 [Example 43] ({Malonyl(2,2-Me2,histaminyl)}-Q[dR]PRL[Aib]H[Ala(piperidin-4-yl)]G[Oic][Phe(4-Br)]P[dCha]-OH) | > 10000 | – | – | 95.7 | 100 |
